Results: the NIST ThermoML archive (doi:10.1016/j.fluid.2017.12.026)
Where “and” joins values, the source holds several entries; their conditions need not be identical. Identical values can stand only once.

Details: Coaxial cylinder method

CCCCC [pentane]
Details	thermal conductivity
465.4 K, 9497 kPa, Liquid	0.07785 W/m/K
465.4 K, 9610 kPa, Liquid	0.07785 W/m/K
465.4 K, 9891 kPa, Liquid	0.07814 W/m/K
466.27 K, 100 kPa, Gas	0.03453 W/m/K
466.28 K, 100 kPa, Gas	0.03449 W/m/K
466.29 K, 100 kPa, Gas	0.03442 W/m/K
466.3 K, 100 kPa, Gas	0.03439 W/m/K
466.7 K, 100 kPa, Gas	0.03462 W/m/K
467.36 K, 11000 kPa, Liquid	0.08067 W/m/K
467.36 K, 11500 kPa, Liquid	0.08129 W/m/K
467.36 K, 12000 kPa, Liquid	0.08175 W/m/K
467.36 K, 13000 kPa, Liquid	0.08285 W/m/K
467.36 K, 13800 kPa, Liquid	0.08362 W/m/K
467.36 K, 15200 kPa, Liquid	0.08486 W/m/K
467.36 K, 16000 kPa, Liquid	0.08553 W/m/K
467.36 K, 16500 kPa, Liquid	0.08593 W/m/K
467.36 K, 17000 kPa, Liquid	0.08638 W/m/K
467.36 K, 17500 kPa, Liquid	0.08673 W/m/K
467.36 K, 18000 kPa, Liquid	0.08718 W/m/K
467.36 K, 18500 kPa, Liquid	0.0876 W/m/K
467.36 K, 19000 kPa, Liquid	0.08803 W/m/K
467.36 K, 19500 kPa, Liquid	0.08843 W/m/K
467.36 K, 20000 kPa, Liquid	0.08879 W/m/K
467.36 K, 20500 kPa, Liquid	0.08919 W/m/K
467.36 K, 21000 kPa, Liquid	0.08956 W/m/K
467.36 K, 21500 kPa, Liquid	0.08989 W/m/K
467.36 K, 22000 kPa, Liquid	0.09031 W/m/K
467.36 K, 22500 kPa, Liquid	0.09068 W/m/K
467.36 K, 23000 kPa, Liquid	0.0911 W/m/K
467.36 K, 23500 kPa, Liquid	0.09141 W/m/K
467.36 K, 24000 kPa, Liquid	0.0918 W/m/K
467.36 K, 24500 kPa, Liquid	0.09219 W/m/K
467.36 K, 25000 kPa, Liquid	0.09258 W/m/K
467.36 K, 25500 kPa, Liquid	0.09286 W/m/K
467.36 K, 26000 kPa, Liquid	0.09318 W/m/K
467.36 K, 26500 kPa, Liquid	0.09358 W/m/K
467.36 K, 27000 kPa, Liquid	0.0939 W/m/K
467.36 K, 27500 kPa, Liquid	0.09419 W/m/K
467.36 K, 28000 kPa, Liquid	0.09456 W/m/K
467.36 K, 28500 kPa, Liquid	0.09489 W/m/K
467.36 K, 29000 kPa, Liquid	0.09522 W/m/K
467.36 K, 29500 kPa, Liquid	0.09552 W/m/K
467.36 K, 30000 kPa, Liquid	0.09583 W/m/K
467.36 K, 30500 kPa, Liquid	0.09613 W/m/K
467.36 K, 31000 kPa, Liquid	0.09634 W/m/K
467.36 K, 31280 kPa, Liquid	0.09643 W/m/K
467.36 K, 31300 kPa, Liquid	0.09647 W/m/K
467.36 K, 31340 kPa, Liquid	0.09656 W/m/K
467.76 K, 100 kPa, Gas	0.03471 W/m/K
468.02 K, 100 kPa, Gas	0.03483 W/m/K
468.08 K, 100 kPa, Gas	0.03457 W/m/K
468.57 K, 100 kPa, Gas	0.03481 W/m/K
469.93 K, 100 kPa, Gas	0.03492 W/m/K
470.04 K, 2036 kPa, Gas	0.03754 W/m/K
470.07 K, 100 kPa, Gas	0.03498 W/m/K
470.2 K, 100 kPa, Gas	0.03485 W/m/K
471.68 K, 100 kPa, Gas	0.03523 W/m/K
472.17 K, 1697 kPa, Gas	0.03753 W/m/K
472.21 K, 100 kPa, Gas	0.03519 W/m/K
472.84 K, 100 kPa, Gas	0.03528 W/m/K
472.97 K, 100 kPa, Gas	0.03526 W/m/K
473.01 K, 100 kPa, Gas	0.03533 W/m/K
473.86 K, 100 kPa, Gas	0.03563 W/m/K
474.81 K, 100 kPa, Gas	0.03571 W/m/K
475.4 K, 100 kPa, Gas	0.03567 W/m/K
475.7 K, 10375 kPa, Gas	0.07726 W/m/K
475.7 K, 17575 kPa, Gas	0.0849 W/m/K
475.7 K, 19975 kPa, Gas	0.08712 W/m/K
475.7 K, 24775 kPa, Gas	0.0897 W/m/K
475.7 K, 29975 kPa, Gas	0.09365 W/m/K
475.7 K, 40275 kPa, Gas	0.09992 W/m/K
475.7 K, 48475 kPa, Gas	0.1033 W/m/K
476.21 K, 100 kPa, Gas	0.03593 W/m/K
478.08 K, 100 kPa, Gas	0.03587 W/m/K
478.2 K, 100 kPa, Gas	0.03595 W/m/K
478.5 K, 2001 kPa, Gas	0.03835 W/m/K
478.5 K, 10175 kPa, Gas	0.07793 W/m/K
478.5 K, 19775 kPa, Gas	0.08695 W/m/K
478.5 K, 20375 kPa, Gas	0.08696 W/m/K
478.5 K, 30175 kPa, Gas	0.09387 W/m/K
478.5 K, 32975 kPa, Gas	0.09616 W/m/K
478.5 K, 40175 kPa, Gas	0.1002 W/m/K
478.5 K, 46675 kPa, Gas	0.1028 W/m/K
479.9 K, 100 kPa, Gas	0.03642 W/m/K
482.02 K, 100 kPa, Gas	0.03645 W/m/K
482.02 K, 2180 kPa, Gas	0.03995 W/m/K
484.5 K, 7555 kPa, Gas	0.07149 W/m/K
484.5 K, 10055 kPa, Gas	0.0768 W/m/K
484.5 K, 19975 kPa, Gas	0.08666 W/m/K
484.5 K, 25175 kPa, Gas	0.09003 W/m/K
484.5 K, 27775 kPa, Gas	0.09214 W/m/K
485.84 K, 1820 kPa, Gas	0.03954 W/m/K
485.84 K, 1830 kPa, Gas	0.03953 W/m/K
485.84 K, 1886 kPa, Gas	0.03962 W/m/K
485.84 K, 2000 kPa, Gas	0.04018 W/m/K
485.84 K, 2180 kPa, Gas	0.04056 W/m/K
485.84 K, 2260 kPa, Gas	0.04079 W/m/K
485.84 K, 2280 kPa, Gas	0.04036 W/m/K
485.84 K, 2300 kPa, Gas	0.04075 W/m/K
485.84 K, 2560 kPa, Gas	0.04155 W/m/K
487.28 K, 1820 kPa, Gas	0.03982 W/m/K
487.3 K, 100 kPa, Gas	0.03739 W/m/K
497.3 K, 988 kPa, Gas	0.03935 W/m/K
497.3 K, 2518 kPa, Gas	0.04191 W/m/K
497.3 K, 9975 kPa, Gas	0.07419 W/m/K
497.3 K, 19975 kPa, Gas	0.08618 W/m/K
497.3 K, 30375 kPa, Gas	0.09354 W/m/K
497.3 K, 40275 kPa, Gas	0.09941 W/m/K
497.3 K, 49575 kPa, Gas	0.1037 W/m/K
497.65 K, 100 kPa, Gas	0.03875 W/m/K
500.96 K, 100 kPa, Gas	0.03915 W/m/K
523 K, 988 kPa, Gas	0.0425 W/m/K
523 K, 2508 kPa, Gas	0.04516 W/m/K
523 K, 17975 kPa, Gas	0.0821 W/m/K
523 K, 20175 kPa, Gas	0.08444 W/m/K
523 K, 25475 kPa, Gas	0.0885 W/m/K
523 K, 30475 kPa, Gas	0.09129 W/m/K
523 K, 40175 kPa, Gas	0.09665 W/m/K
523 K, 43475 kPa, Gas	0.09824 W/m/K
523 K, 49975 kPa, Gas	0.1014 W/m/K
526.4 K, 2200 kPa, Gas	0.04473 W/m/K
526.4 K, 2300 kPa, Gas	0.0457 W/m/K
526.4 K, 2400 kPa, Gas	0.0457 W/m/K
526.4 K, 2500 kPa, Gas	0.0457 W/m/K
526.4 K, 2600 kPa, Gas	0.04565 W/m/K
526.4 K, 2700 kPa, Gas	0.0456 W/m/K
526.4 K, 2800 kPa, Gas	0.04599 W/m/K
526.4 K, 2900 kPa, Gas	0.0465 W/m/K
526.4 K, 3000 kPa, Gas	0.04712 W/m/K
526.4 K, 3300 kPa, Gas	0.04771 W/m/K
526.4 K, 3600 kPa, Gas	0.04853 W/m/K
526.4 K, 3700 kPa, Gas	0.04799 W/m/K
526.4 K, 3800 kPa, Gas	0.04888 W/m/K
526.54 K, 2200 kPa, Gas	0.04492 W/m/K
526.57 K, 100 kPa, Gas	0.04253 W/m/K
576.1 K, 100 kPa, Gas	0.04957 W/m/K
576.1 K, 988 kPa, Gas	0.05094 W/m/K
576.1 K, 2417 kPa, Gas	0.05148 W/m/K
576.1 K, 2508 kPa, Gas	0.05179 W/m/K
576.1 K, 4048 kPa, Gas	0.05495 W/m/K
576.1 K, 20475 kPa, Gas	0.08464 W/m/K
576.1 K, 22475 kPa, Gas	0.08627 W/m/K
576.1 K, 30275 kPa, Gas	0.09057 W/m/K
576.1 K, 30575 kPa, Gas	0.09 W/m/K
576.1 K, 40175 kPa, Gas	0.09709 W/m/K
576.1 K, 40975 kPa, Gas	0.09601 W/m/K
576.1 K, 51275 kPa, Gas	0.1023 W/m/K
618.2 K, 7584 kPa, Gas	0.06457 W/m/K
618.2 K, 9985 kPa, Gas	0.06826 W/m/K
618.2 K, 11475 kPa, Gas	0.07159 W/m/K
618.2 K, 12945 kPa, Gas	0.07331 W/m/K
618.2 K, 12985 kPa, Gas	0.07397 W/m/K
618.2 K, 14975 kPa, Gas	0.07629 W/m/K
618.2 K, 18875 kPa, Gas	0.08227 W/m/K and 0.08277 W/m/K
621.2 K, 100 kPa, Gas	0.05581 W/m/K
621.2 K, 10375 kPa, Gas	0.06836 W/m/K
621.2 K, 15375 kPa, Gas	0.07737 W/m/K
621.2 K, 20275 kPa, Gas	0.08383 W/m/K
621.2 K, 22975 kPa, Gas	0.08581 W/m/K
621.2 K, 30175 kPa, Gas	0.09232 W/m/K
621.2 K, 39275 kPa, Gas	0.09614 W/m/K
621.2 K, 40375 kPa, Gas	0.09714 W/m/K
621.2 K, 49975 kPa, Gas	0.1015 W/m/K
621.2 K, 53675 kPa, Gas	0.1031 W/m/K
621.2 K, 53975 kPa, Gas	0.103 W/m/K
